Reference: patent US7157471B2, “Haloalkyl- and piperidine-substituted benzimidazole-derivatives” (Boehringer Ingelheim International GmbH, priority 2003, dated 2007)
Where a name gives a salt, the structure may show the parent alone.

Assays:
[1] = target: T1, human chemokine receptor CCR-3 (Homo sapiens, UniProt P51677); test: CCR-3 receptor binding assay (SPA) with 125Jodine-eotaxin-1; conditions: membranes of hCCR-3 transfected K562 cells, radioligand 125J rhEotaxin, 2 hours incubation; read-out: Binding constants Ki (Eotaxin at CCR-3-Rezeptor)
T1 construct: expressed in transfected cells; host or cells: K562 cell line (membranes)
T1 sequence (P51677 1-355): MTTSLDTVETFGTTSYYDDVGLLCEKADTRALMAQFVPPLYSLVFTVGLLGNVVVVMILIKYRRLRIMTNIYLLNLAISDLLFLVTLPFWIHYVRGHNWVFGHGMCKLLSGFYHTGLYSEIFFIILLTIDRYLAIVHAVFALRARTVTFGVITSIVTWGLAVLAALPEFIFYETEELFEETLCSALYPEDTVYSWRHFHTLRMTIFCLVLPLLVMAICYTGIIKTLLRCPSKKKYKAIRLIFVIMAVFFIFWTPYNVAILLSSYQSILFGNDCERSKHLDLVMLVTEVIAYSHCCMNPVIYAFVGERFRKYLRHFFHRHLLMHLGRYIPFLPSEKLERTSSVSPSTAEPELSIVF
Method: The CCR-3 receptor binding test is based on a K562 cell line (leukemia myelogenic blast cells) transfected with the human chemokine receptor CCR-3 (hCCR-3-Cl). The cell membranes were prepared by disrupting the hCCR-3 transfected K562 cells by nitrogen […] and centrifugation at 40000 g, 4° C. for 1 h. The membranes were re-suspended in the SPA incubation buffer without bovine serum albumin for storage in aliquots at −80° C.
The CCR-3 receptor binding assay with the radioligand ^125Jodine-eotaxin-1 was performed in a Scintillation Proximity Assay (SPA) design. Cell membranes of hCCR-3 Cl cells were diluted in suitable concentrations (0.5–5 ug protein/well) in 96 well microtiter plates (1450–401, Wallac).
The test incubation mixture comprising 60 μl of the membrane suspension, 80 μl of the Wheat Germ Agglutinin coated PVT beads (organic scintillator, Amersham Pharmacia biotech) in a concentration of 0,4 mg and 40 μl of radiolabelled ^125J rhEotaxin (Amersham, IM290) were incubated with 20 μl of the test compound (dissolved in DMSO dilutions) for 2 hours. […] Bound radioactivity was determined by scintillation counter (Micro Beta “Trilux”, Wallac).
Determination of affinity of test compounds (dissociation constant Ki) was calculated by iterative fitting of experimental data using the law of mass action based program “easy sys” (Schittkowski, Num Math 68, 129–142 (1994)).

| melting point [°C] | Ki [1] [nM] | Structure (SMILES) |
| --- | --- | --- |
| 208 to 209 | – | Fc1ccc(SCCCN2CCC(n3c(C(F)(F)C(F)(F)F)nc4cc(F)ccc43)CC2)cc1 (as salt: hydrochloride) [Example 6, 2-Pentafluoroethyl-5-fluoro-1-{1-[3-(4-fluoro-phenylsulfanyl)-propyl]-piperidin-4-yl}-1H-benzoimidazole] |
| 158 to 160 | – | Fc1ccc(SCCCN2CCC(n3c(CC(F)(F)F)nc4cc(F)ccc43)CC2)cc1 (as salt: hydrochloride) [Example 10, 2-(2,2,2-Trifluoroethyl)-5-fluoro-1-{1-[3-(4-fluoro-phenylsulfanyl)-propyl]-piperidin-4-yl}-1H-benzoimidazole] |
| – | 110 | Fc1ccc(SCCCN2CCC(n3c(C(F)(F)C(F)(F)F)nc4cc(F)ccc43)CC2)cc1 [Example 6, 2-Pentafluoroethyl-5-fluoro-1-{1-[3-(4-fluoro-phenylsulfanyl)-propyl]-piperidin-4-yl}-1H-benzoimidazole] |
| – | 19 | Fc1ccc(SCCCN2CCC(n3c(CC(F)(F)F)nc4cc(F)ccc43)CC2)cc1 [Example 10, 2-(2,2,2-Trifluoroethyl)-5-fluoro-1-{1-[3-(4-fluoro-phenylsulfanyl)-propyl]-piperidin-4-yl}-1H-benzoimidazole] |
